Values of other authors as cited in patent US20190203187A1, “CHEMILUMINESCENT WETNESS INDICATOR FOR ABSORBENT PRODUCTS” (International Paper Company, priority 2014, published 2019).

Assays:
Renilla Luciferase = biological target: T1, Renilla Luciferase (Renilla reniformis, UniProt P27652)
T1 sequence (P27652 1-311): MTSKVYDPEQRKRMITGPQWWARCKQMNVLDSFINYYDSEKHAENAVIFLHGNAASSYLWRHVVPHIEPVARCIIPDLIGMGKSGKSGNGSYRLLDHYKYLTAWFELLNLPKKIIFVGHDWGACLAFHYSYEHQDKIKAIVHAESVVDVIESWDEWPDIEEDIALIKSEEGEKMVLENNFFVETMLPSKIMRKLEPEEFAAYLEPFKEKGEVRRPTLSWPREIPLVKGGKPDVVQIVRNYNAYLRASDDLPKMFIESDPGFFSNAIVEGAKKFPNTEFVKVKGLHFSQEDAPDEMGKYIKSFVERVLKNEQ

[1] = test system: Gaussia luciferase (Gluc)
apoaequorin = biological target: T2, apoaequorin (Aequorea victoria, UniProt P07164); conditions: for luminescence intensity relative to coelenterazine (native form): coelenterazine-apoaequorin (aequorin) complex
T2 sequence (P07164 8-196): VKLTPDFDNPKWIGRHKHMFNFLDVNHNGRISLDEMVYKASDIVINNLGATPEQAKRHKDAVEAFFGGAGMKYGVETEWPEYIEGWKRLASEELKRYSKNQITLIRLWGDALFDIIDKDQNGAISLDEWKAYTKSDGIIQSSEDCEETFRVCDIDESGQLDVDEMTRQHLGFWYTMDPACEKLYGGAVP

O=c1c(Cc2ccccc2)nc2c(Cc3ccccc3)[nH]c(-c3ccccc3)cn1-2 [coelenterazine 400a, coelenterazine 400a (2-2′(4-dehydroxy)) coelenterazine]
quality as substrate for Renilla luciferase (Renilla Luciferase): good substrate | emission maximum (Renilla Luciferase; substrate for Renilla luciferase, BRET): 400 nm | oxidation with Gaussia luciferase [1]: does not oxidize well

Oc1ccc(Cc2nc3c(CC4CCCC4)nc(-c4ccc(O)cc4)cn3c2O)cc1 [coelenterazine cp]
luminescence intensity relative to coelenterazine (native form) (apoaequorin): 15 times

Oc1ccc(Cc2nc3c(Cc4ccccc4)nc4c(n3c2O)CCc2cc(O)ccc2-4)cc1 [coelenterazine e]
quality as substrate for apoaequorin (apoaequorin): poor substrates

Oc1ccc(-c2cn3c(O)c(Cc4ccc(F)cc4)nc3c(CC3CCCC3)n2)cc1 [coelenterazine fcp]
quality as substrate for Renilla luciferase (Renilla Luciferase): poor substrate | luminescence intensity relative to coelenterazine (native form) (apoaequorin): 135 times

coelenterazine f
luminescence intensity relative to coelenterazine (native form) (apoaequorin): 20 times | emission maximum longer than that of the native form (apoaequorin; coelenterazine-apoaequorin complex): about 8 nm
